Earlier results on 2 substances are cited in PMC4956526 (Bioconjugate chemistry, 2016).

The conditions of the series: ref 40 (Lau et al.).

Take liraglutide: the subcutaneous bioavailability is listed as 66%.
For semaglutide, the subcutaneous bioavailability is on record as 94%.
